The text below walks through data of US9880171B2, “iASPP phosphorylation and metastatic potential” (LUDWIG INSTITUTE FOR CANCER RESEARCH LTD., priority 2012, dated 2018).

In assay [1] the test system is WM278, Me300 and SK-MEL37 melanoma cells. In words: apoptosis by Annexin V / Sub-G1 FACS analysis, Example 10, human melanoma cells. The class given is cell-based. The note with it: for apoptosis: agent alone, JNJ 0.4 μM, Nutlin3 10-20 μM, 72 hours, melanoma cell lines. The protocol:
(§1) FIG. 20. Restoring p53 by inhibiting mdm2 and iASPP suppresses melanoma growth in vitro and in vivo. FIG. 20A. H1299 cells were treated with DMSO or 10 μM nocodazole in the presence or absence of 2 or 10 μM of mitosis-related kinase inhibitors as indicated. […] FIG. 20B. Left panel: representative p53 level after Nutlin3 treatment for 24 hours in a variety of cells. Right bar graphs show the sub-G1 proportion of WM278 after treatment as that described in FIG. 19B (in upper panel, 10 μM and 20 μM Nutlin3 were used in parallel for comparison). From left to right of the upper right bar graph of FIG. 20B, the bars correspond to DMSO, Nut and JNJ+Nut, respectively. From left to right of the bottom bar graph of FIG. 20B, the bars correspond to DMSO, JNJ, Nut and JNJ+Nut, respectively. FIG. 20C. Me300, SK-MEL37, and B16 cells were treated as above (For B16 panel, 10 μM Nutlin3 was used) and sub-G1 proportion was analyzed. In (B) and (C), the bar graphs (mean±SD) were derived from three independent experiments. *p<0.05. FIG. 20D. Left panel: untreated B16 cells were subcutaneously injected into mice at day 1. […] Compound administration and tumor size measurement were repeated every two days from day 7 onwards. Bar graphs are shown as mean±SD (*p<0.05, n=6). FIG. 20E. Lower panels show representative images of isolated tumors. Right panel: representative H & E staining in B16 tumor section. Bar=20 μm.
FIG. 21. Restoring apoptotic function of p53 cooperates with BRAFV600E inhibition to suppress human melanoma cell growth.
In general terms: A flow cytometer gives signals particle by particle.

Assay [2] has as its system nuclear iASPP and p53 in B16 tumors. Nature of the assay: immunofluorescence staining of iASPP and p53 in B16 tumor sections. It counts as in vivo, C57BL/6 mice. The conditions noted are these: tumor sections from i.p. treated mice.
Another assay deals with B16 melanoma cells. In words: xenograft assay, B16 cells treated in vitro and injected into C57BL/6 mice. The class given is in vivo. The note with it: 13 days after injection of in vitro treated B16 cells. How it is done: At day 1, C57BL/6 mice (7-9 weeks old) were injected s.c. at flanks with 1×10^6 B16 melanoma cells in 100 μl PBS (component treated cells for FIG. 19C, untreated cells for FIGS. 19D and 20D). Component (Nutlin3 (40 mg/kg) or JNJ-7706621 (also referred to herein as “JNJ”, 30 mg/kg)) was dissolved in DMSO and i.p. administered every two days since day 3, or day 7 (no component administration for FIG. 19C). Tumor size was measured every two days with vernier caliper. Tumor volumes were calculated using the following formula: (L*W*W)/2, in which L represents the larger diameter of the tumor, and W represents the smaller diameter. On day 13 (tumor area reach ˜1.2 cm diameter in DMSO group), all mice were sacrificed and tumors were isolated and weighed.
Mouse B16 melanoma cells are known to form highly aggressive melanoma in vivo in immune competent C57BL/6 syngeneic mice. Because regulation of p53 by iASPP and mdm2 exists in both human WM278 cells and mouse B16 cells, experiments were carried out to determine if restoring p53 function in B16 cells is able to suppress tumor growth in C57BL/6 mice in vivo. B16 cells, treated with (1) DMSO, (2) Nutlin3, (3) JNJ, or (4) Nutlin3+JNJ, were injected into the flank of 7-9 week-old female C57BL/6 mice.

In the next assay the test system is B16 melanoma. Nature of the assay: xenograft assay, untreated B16 cells, compounds given i.p. It counts as in vivo, C57BL/6 mice. Set-up: concentration or dose not given beside the values. The protocol: as §1
At day 1, C57BL/6 mice (7-9 weeks old) were injected s.c. at flanks with 1×10^6 B16 melanoma cells in 100 μl PBS (component treated cells for FIG. 19C, untreated cells for FIGS. 19D and 20D).

Assay [3] has as its system WM278, Me300 and SK-MEL37 melanoma cells. In words: colony formation assay, Example 10, human melanoma cells. The class given is cell-based. The note with it: agent alone; melanoma cell lines. From the text: FIG. 21. Restoring apoptotic function of p53 cooperates with BRAFV600E inhibition to suppress human melanoma cell growth. […] The bar graphs (mean±SD) were derived from three independent experiments. *p<0.05. Lower images show representative Annexin V/7-AAD profile and dishes, respectively. FIG. 21C. Diagrams showing how cyclinB1/cdk1 phosphorylation controls iASPP localization in interphase (interphase) or mitosis or tumor cells (mitosis/melanomas). Blue and red stars (*) indicate the C- and N-terminal contact residues and the phosphorylation status is labeled as (P). The bottom diagram summarizes the pathways that PLX4032, Nutlin3 and JNJ used to suppress melanoma cell growth.

Where [4] appears, read: i.p. administration from day 3 after B16 inoculation.
[5] abbreviates: i.p. administration from day 7 after B16 inoculation.

Regarding `Nc1nc(Nc2ccc(S(N)(=O)=O)cc2)nn1C(=O)c1c(F)cccc1F` [JNJ-7706621], the “increase in Nutlin3-induced apoptosis” value in assay [1] (Me300 and WM278 cells, Annexin V or Sub-G1) is given as 3-4 fold. In addition, in assay [1], the apoptosis result is on record as “only a small percentage of cells”. For the same compound, the “iASPP expression in B16 tumors” value in assay [2] is reported as “clearly reduced nuclear iASPP expression”. Further, in assay [2], the “p53 expression in B16 tumors” value was “no effect on p53 expression”. Also, the “tumor size and weight, of control (DMSO-treated B16 cell group)” value with B16 melanoma cells was “around 40%”. Further, the “suppression of B16 melanoma growth” value came to 36% in the assay on B16 melanoma (setting [4]) and 30% with B16 melanoma (setting [5]). The “suppression of cell growth” value in assay [3] is “limited”.
Regarding `COc1ccc(C2=N[C@@H](c3ccc(Cl)cc3)[C@@H](c3ccc(Cl)cc3)N2C(=O)N2CCNC(=O)C2)c(OC(C)C)c1` [Nutlin3], the apoptosis result in assay [1] is recorded as “only a small percentage of cells”. Further, in assay [2], the “iASPP expression in B16 tumors” value is given as “minimal impact on iASPP expression” and the “p53 expression in B16 tumors” value was “induced nuclear p53 expression”. Moreover, the “tumor size and weight, of control (DMSO-treated B16 cell group)” value in the assay with B16 melanoma cells is around 60%. Also, in the assay with B16 melanoma (setting [4]), the “suppression of B16 melanoma growth” value was 22%. Moreover, the “suppression of B16 melanoma growth” value in the assay with B16 melanoma (setting [5]) was 5%. Further, in assay [3], the “suppression of cell growth” value is listed as “limited”.
